Publication PMC12435366, “Maleic anhydride derived diphosphines: adaptable chelators for receptor-targeted ^99mTc, ^64Cu and ^188Re radiotracers” (Chemical Science, 2025)

How the values were obtained:
[1] = system: PSMA-expressing DU145-PSMA+ prostate cancer cells; assay: In vitro uptake of 99mTc tracers in DU145-PSMA+ cells; format: cell-based; conditions: for uptake in DU145-PSMA+ cells (% added radioactivity): 50 kBq purified tracer, 5 × 10^5 cells seeded per well, 37 °C, 1 h incubation, mean ± SD, biological triplicate; for blocking of cell uptake by PSMA inhibitor PMPA: co-incubation with PMPA
Experimental: (§1) To compare the relative uptake and specificity of the new radiotracers for PSMA, [^99mTcO2(DP^Ph-PSMAt)2]^+, [^99mTcO2(DP^An-PSMAt)2]^+ and [^99mTcO2(DP^MEP-PSMAt)2]^+ (50 kBq) were purified from unreacted ^99mTc precursors and excess DP-PSMAt peptide, and each incubated with PSMA-expressing DU145-PSMA+ prostate cancer cells[33] or LNCaP prostate cancer cells (5 × 10^5 cells). After 1 h incubation, uptake of each radiotracer was quantified. […]
(§2) 4.9 99mTc uptake in DU145, DU145-PSMA+ and LNCaP cells
(§3) The following experiment was performed in biological triplicate.
(§4) A panel of cell lines were selected that either expressed GCP(II)/PSMA (DU145-PSMA+ (genetically modified to express PSMA),12 and LNCaP (CRL‐1740)), or had low GCP(II)/PSMA expression (DU145 (HTB-81)). All cell lines were cultured in RPMI 1640 medium (R0883, Sigma) containing 10% foetal bovine serum, 2 mM L-glutamine, and 100 U mL−1 penicillin and 100 µg mL−1 streptomycin. Cells were maintained at 37 °C and 5% CO 2. Cells were seeded in 6-well plates at a density of 5 × 10^5 cells per well […]
in 2 mL complete media to achieve 70–80% confluency the following day. Prior to treating cells, cell medium (1 mL/well) was replaced. Solutions containing either [99mTcO2(DPPh-PSMAt)2]+, [99mTcO2(DPAn-PSMAt)2]+ or [99mTcO2(DPMEP-PSMAt)2]+ (50 kBq in 10 μL of PBS, >95% radiochemical purity) were added to each well, and the cells incubated at 37 °C for 1 h. Uptake studies were also performed after a 2 min incubation with the PSMA inhibitor 2 -(phosphonomethyl)pentane -1,5-dioic acid (PMPA; 30 µL of 750 µM PMPA solution/well). After 60 min incubation, the supernatant was removed, and the cells were washed with PBS solution (2 × 1 mL). The cells were lysed with ice cold radioimmunoprecipitation assay buffer (RIPA buffer, 500 μL; 150 mM sodium chloride, 0.1% w/w sodium dodecyl sulfate (SDS), 0.5% w/w sodium deoxycholate (NaDOC), 1% w/w Triton-X) and samples were collected for radioactivity counting. Results are depicted as means ± SD of independent biological experiments (performed on different days with different radiotracer preparations). […]
Biodistribution studies using 99mTc radiotracers were performed once a tumour had reached 150– 300 mm3 in volume (2–7 weeks after injection).
SCID/beige mice bearing DU145-PSMA+ prostate cancer tumour xenografts
SPECT/CT scanning and biodistribution studies: The 99mTc radiotracers (3.9–4.5 MBq, 3 mice per group, containing DPAn-PSMAt = 3.0 µg or DPMEP-PSMAt = 3.5 µg) were administered via tail vein injection under isoflurane anaesthesia. Following this, SPECT/CT scanning was carried out in one of two methods outlined below, to maintain 2 h biodistribution timepoints : i. The mouse was positioned on a single heated bed in a nanoScan SPECT/CT 80W scanner (Mediso Ltd., Budapest, Hungary) calibrated for 99mTc. A helical CT scan was acquired (50 kV X-ray source, 170 ms exposure time in 360 projections over 3 min). At 15 min post -injection, whole body SPECT scans were acquired (1 × 15 min, 3 × 30 min, conducted sequentially) with a frame time of 13 s and 26 s (using a 4-head scanner with 4 × 9 [1.4 mm] pinhole collimators

[2] = system: LNCaP prostate cancer cells; assay: In vitro uptake of 99mTc tracers in LNCaP cells; format: cell-based; conditions: co-incubation with PMPA, 1 h
Experimental: as §1, §2, §3, §4
in 2 mL complete media to achieve 70–80% confluency the following day. […] The cells were lysed with ice cold radioimmunoprecipitation assay buffer (RIPA buffer, 500 μL; 150 mM sodium chloride, 0.1% w/w sodium dodecyl sulfate (SDS), 0.5% w/w sodium deoxycholate (NaDOC), 1% w/w Triton-X) and samples were collected for radioactivity counting. […]

SMILES | uptake in DU145-PSMA+ cells (% added radioactivity) [1] | mean difference in uptake compared with [^99mTcO2(DP^MEP-PSMAt)2]^+ ([1]; DU145-PSMA+ cells, 1 h) | mean difference in uptake compared with [^99mTcO2(DP^Ph-PSMAt)2]^+ ([1]; DU145-PSMA+ cells, 1 h) | blocking of cell uptake by PSMA inhibitor PMPA ([1]; DU145-PSMA+ cells, 1 h) | blocking of cell uptake by PSMA inhibitor PMPA [2]
COc1ccc(P(/C(C(=O)O)=C(/C(=O)NCCOCCOCCOCCOCCC(=O)NCCCC[C@H](NC(=O)N[C@@H](CCC(=O)O)C(=O)O)C(=O)O)P(c2ccc(OC)cc2)c2ccc(OC)cc2)c2ccc(OC)cc2)cc1 [[^99mTcO2(DP^An-PSMAt)2]^+, metal not drawn] | 8.9 ± 2.1 %AR | 6.2 %AR | 6.5 %AR | blocked | blocked
COCCOc1ccc(P(/C(C(=O)O)=C(/C(=O)NCCOCCOCCOCCOCCC(=O)NCCCC[C@H](NC(=O)N[C@@H](CCC(=O)O)C(=O)O)C(=O)O)P(c2ccc(OCCOC)cc2)c2ccc(OCCOC)cc2)c2ccc(OCCOC)cc2)cc1 [[^99mTcO2(DP^MEP-PSMAt)2]^+, metal not drawn] | 2.7 ± 0.8 %AR | – | 12.7 %AR | blocked | blocked
